This note sets out measurements from PubChem BioAssay AID504539 (Broad Institute, 2011).

Molecules are shown by their SMILES.

In this test the test system is Cell-based prion protein 5' UTR reporter, plate reader. The experiment in a line: prion protein 5' UTR mRNA inhibitors – cell-based, plate reader, cherry-picked samples, dose response (AID 504539).
`Nc1ccc(-c2cc3ccccc3c(=O)o2)cc1`: the AC50 was 467 nM.
For `Cc1ccc(Sc2c(CO)c(-c3ccccc3)nn2C)cc1` the value was 528 nM; for `CCCS(=O)(=O)c1cnc(C2COc3ccccc3O2)nc1N` (stereo unspecified), 487 nM; for `CC(=O)N(/N=C1\Sc2ccccc2C1=O)c1ccc(C)cc1C`, 4720 nM.
`CN(C)CCNc1ccc2ncn3c4ccc(O)cc4c(=O)c1c23`: the AC50 is 2470 nM.
As for `Cc1nn(-c2ccccc2)c(C)c1/C=N/NC(=O)c1cc(-c2ccccc2)n[nH]1`, the AC50 is 783 nM.
With `Cc1ccc2nc(-c3ccc4c(c3)OCCO4)cn2c1`, the AC50 was 110 nM.
For `CCCC[C@@H](C)C[C@@H](C)C(=O)N(C)[C@@H](CC(C)C)C(=O)N[C@H](C(=O)N(C)[C@H](C(=O)N1C[C@@H](O)C[C@H]1C(=O)N1C(=O)C=C[C@@H]1C)C(C)C)C(C)OC(C)=O` (stereo partly specified) the value was less than 38 nM; for `CCC(C)(C)c1ccc(Oc2ccc(N)cc2)cc1`, 173 nM.
On to `c1ccc2nc(-c3ccc(N4CCOCC4)cc3)ccc2c1`, for which the AC50 was 385 nM.
For `CC12CCC3C(CCC4(O)CC(O)CCC34C=NO)C1(O)CCC2C1=COC(=O)C1` (stereo unspecified) the value was 160 nM.
For `Cc1ccc(C(=O)n2c(N)nc3ccccc32)cc1` the value was 493 nM.
For `COc1cc(OC)c2c(-c3cccc(-c4ccc(C(C)=O)cc4)c3)cc(=O)oc2c1` the value was 1580 nM.
Regarding `O=C(NC1=NCCS1)C1COc2ccccc2O1` (stereo unspecified), the AC50 is 296 nM.
For `Cc1c(C(=O)OCc2ccccc2)[nH]c2c1C(=O)CC(c1ccco1)C2` (stereo unspecified) the value was 388 nM.
For `Nc1ccc(-c2ncc(-c3ccccc3)o2)cc1` the value was 145 nM; for `Cc1ccc(C(=O)NCCc2ccccc2)cc1`, 612 nM; for `C[C@@H]1O[C@@H](O[C@H]2C[C@@H](O)[C@]3(CO)[C@H]4[C@H](O)C[C@]5(C)[C@@H](C6COC(=O)C6)CC[C@]5(O)[C@@H]4CC[C@]3(O)C2)[C@H](O)[C@H](O)[C@H]1O` (stereo partly specified), 915 nM.
Regarding `Cc1ccc(NC(=O)O/N=C/c2c(C)nn(C(C)(C)C)c2C)cc1Cl`, the AC50 was 270 nM.
On to `COc1cccc2c1C(=O)c1c(O)c3c(c(O)c1C2=O)CC(O)(C(C)=NNC(=O)c1ccc(Cl)c(Cl)c1)CC3OC1CC(N)C(O)C(C)O1` (stereo unspecified), for which the concentration at half-maximal activity (AC50) was 1270 nM.
For `COc1cc(SC)ccc1C(=O)Nc1nc2ccccc2[nH]1` the value was less than 38 nM; for `COC1C=CC=C(C)C(=O)NC2=CC(=O)C(N)=C(CC(C)CC(OC)C(O)C(C)C=C(C)C1OC(N)=O)C2=O` (stereo unspecified), less than 38 nM; for `CC(C)(C)c1ccc(C(=O)O/N=C(\N)c2ccccn2)cc1`, 317 nM.
For `C/C=C/COC(=O)c1[nH]c2c(c1C)C(=O)CC(c1ccco1)C2` (stereo unspecified) the value was 660 nM.
For `CN(c1ccc2nc3ccccc3c(=O)n2n1)C1CCCCC1` the value was 574 nM; for `CCN1C/C(=C\c2cccc([N+](=O)[O-])c2)C(=O)/C(=C/c2cccc([N+](=O)[O-])c2)C1`, 2350 nM.
`N#CC1=C(N)Oc2c(ccc3ccccc23)C1c1ccsc1` (stereo unspecified): the AC50 is 831 nM.
For `Cc1ccoc1C(=O)Nc1ccc(CC(=O)O)cc1` the value was 374 nM; for `O=C(c1ccc(Cl)cc1)N1CCCCC(Sc2nnc(-c3ccc4c(c3)OCO4)o2)C1=O` (stereo unspecified), 419 nM; for `COc1ccc(OC)c(-c2nnc3n2N=C(c2ccc(OC)c(OC)c2)CS3)c1`, 261 nM.
For `COCCn1c(C)cc(C2=NNC(=NC3CC3)SC2)c1C` the value was less than 38 nM; for `COc1cc(SC)ccc1C(=O)Nc1ccc(Br)cn1`, 500 nM.
`O=C1NC2C(=CC(O)C(O)C2O)c2cc3c(c(O)c21)OCO3` (stereo unspecified): the AC50 was 205 nM.
For `COc1ccccc1C(=O)Nc1nc2ccccc2s1`, the AC50 was 204 nM.
Turning to `CC(=O)c1sc2c(c1OC(=O)c1ccc(Cl)cc1Cl)c(=O)n(-c1ccccc1)c(=S)n2-c1ccccc1`, the AC50 is 452 nM.
`CN=c1scc(-c2ccccc2F)n1/N=C/c1ccc[nH]1`: the AC50 is less than 38 nM.
For `CC(C)(C)C(=O)Nc1ccc(NC(=O)c2ccco2)nc1` the value was 244 nM; for `Cc1nc(SCC(=O)Nc2nccs2)c(C#N)c(C)c1C`, 991 nM; for `CCCN1C=CC(=C2C(=O)c3ccccc3C2=O)C=C1`, 169 nM.
Regarding `CC1CCc2c(sc(NC(=O)CSc3ncn[nH]3)c2C#N)C1` (stereo unspecified), the AC50 was 257 nM.
`CC(C)CCCCCCCCCCCCC(=O)NCC(=O)NC1C(C)OC(Nc2ncnc3nc[nH]c23)C(O)C1O` (stereo unspecified): the AC50 was 73 nM.
For `Cc1c(C(=O)OCC(C)C)[nH]c2c1C(=O)CC(c1ccco1)C2` (stereo unspecified) the value was 1260 nM; for `O=C(CSc1nnc(-c2ccccc2)o1)Nc1ccccc1F`, 675 nM; for `CC1CCCN(c2ccc([N+](=O)[O-])cc2C(=O)c2ccccc2)C1` (stereo unspecified), 1670 nM.
For `NC1=C(Cl)C(=O)c2ccc(S(N)(=O)=O)cc2C1=O` the value was 226 nM; for `O=C(Nc1ccc(N2CCCCC2)cc1)c1ccccn1`, 273 nM.
For `CC1=CC2OC3CC4OC(=O)C=CC=CC(=O)OCCC(C)C(O)C(=O)OCC2(CC1O)C4(C)C31CO1` (stereo unspecified) the value was less than 38 nM; for `CC(=O)O[C@H]1C(=O)[C@@]2(C)[C@H]([C@H](OC(=O)c3ccccc3)[C@]3(O)C[C@H](OC(=O)[C@H](O)[C@@H](NC(=O)c4ccccc4)c4ccccc4)C(C)=C1C3(C)C)[C@]1(OC(C)=O)CO[C@@H]1C[C@@H]2O`, 227 nM.
As to `CN(CCO)c1ccc(/C=N/Nc2nncc3ccccc23)cc1`, the AC50 is 412 nM.
For the molecule `C=CCn1c(C)cc(C(=O)CN2C(=O)c3ccccc3S2(=O)=O)c1C`, the AC50 is 249 nM.
As for `COC(=O)c1[nH]c2c(c1C)C(=O)CC(c1cccc(OC)c1)C2` (stereo unspecified), the AC50 is 715 nM.
In the case of `Cc1cc(C)c2c(N)c(C(=O)Nc3ncc(C)s3)sc2n1`, the AC50 was 388 nM.
In the case of `Cc1ccc(C(=O)N/N=C/c2ccc([N+](=O)[O-])s2)cc1`, the AC50 is 1010 nM.
As for `COc1ccc(OC)c(N/C=C/C(=O)c2ccccc2)c1`, the AC50 was 558 nM.
For `Cc1nc(SCC(=O)Nc2nc3ccccc3s2)c(C#N)c(C)c1C` the value was less than 38 nM; for `O=c1c2ccccc2cnn1-c1nc2ccccc2[nH]1`, 185 nM.
For `CC(=NNC(=S)N(Cc1ccccn1)Cc1ccccn1)c1cnccn1` the value was 878 nM.
Turning to `N/C(=N\OC(=O)c1ccccc1Cl)c1ccccn1`, the AC50 was 558 nM.
Turning to `O=C(/C=C/Nc1ccccc1Br)c1ccccn1`, the AC50 was 281 nM.
In the case of `CCOc1ccc(NC(=O)c2ccccn2)cc1`, the AC50 is 345 nM.
For `Cc1ccc(-n2nnc(-c3nccs3)n2)cc1` the value was 571 nM.
For `Cc1ccc(C(=O)CN2C(=O)c3ccccc3S2(=O)=O)cc1` the value was 823 nM.
For `COc1ccc(-c2nsc3c(N4CCCCC4C)ncnc23)cc1` (stereo unspecified) the value was 51 nM.
For `COC(C(=O)C(O)C(C)O)C1Cc2cc3cc(OC4CC(OC5CC(O)C(O)C(C)O5)C(O)C(C)O4)c(C)c(O)c3c(O)c2C(=O)C1OC1CC(OC2CC(OC3CC(O)C(OC)C(C)O3)C(O)C(C)O2)C(O)C(C)O1` (stereo unspecified), the AC50 was 83 nM.
For `Cc1cccc(C(=O)O/N=C(\N)c2ccccn2)c1` the value was 915 nM; for `CC(=O)O[C@H]1C(=O)[C@@]2(C)[C@H]([C@H](OC(=O)c3ccccc3)[C@]3(O)C[C@H](OC(=O)[C@H](O)C(NC(=O)c4ccccc4)c4ccccc4)C(C)=C1C3(C)C)[C@]1(OC(C)=O)CO[C@@H]1C[C@@H]2O` (stereo partly specified), 170 nM.
